We go through 2 compounds from patent publication US20090088482A1, “Compositions and Methods For Treating Heart Failure” (The Trustees Of Columbia University In The City New York, priority 2003, published 2009).

Structures can show the parent of a compound that is named as a salt.

A short description of data set [1]: Cardiopulmonary exercise testing in a patient with NYHA Class III CHF treated with clenbuterol. As to conditions: 40 mcg b.i.d., six weeks. Type of data set: in vivo, human. The procedure:
A patient with New York Heart Association Class III CHF with an ICD, currently taking a heart failure medical regimen, including carvedilol (a non-selective beta-blocking agent), lisinopril (an ACE inhibitor), digoxin and spiranolactone, has shortness of breath on moderate exertion and a peak oxygen consumption of 14 ml/kg/min during cardiopulmonary exercising testing.

For data set [2] the following is noted: CHF patients, 8 mg b.i.d., three weeks; cited from earlier work.

For `CC(C)(C)NCC(O)c1cc(Cl)c(N)c(Cl)c1` (centres unmarked) [clenbuterol hydrochloride, Clenbuterol hydrochloride], the tolerability of dose entry in data set [1] is recorded as “well-tolerated”.

Take `CC(C)(C)NCC(O)c1ccc(O)c(CO)c1` (centres unmarked) [salbutamol]: the “quadriceps bulk, muscle strength or fatigue, exercise capacity, symptom assessment scores” value in data set [2] is “no change”.
